Source: patent publication US10231453B2, “5-substituted imidazole derivatives” (BAYER CROPSCIENCE AKTIENGESELLSCHAFT, priority 2015, dated 2019)
Read-outs that look alike come from different tables or passages of the source.

Key:
[1] = system: Fusarium culmorum; assay: In vitro test for the calculation of the ED50-value with microorganisms, Example Q4: Fusarium culmorum; format: cell-based; settings: liquid culture, spore suspension, 4 to 7 days incubation, spectrometric measurement of mycelium growth
Protocol: • Solvent: Dimethyl sulfoxide • Culture medium: 14.6 g anhydrous D-glucose (VWR), 7.1 g Mycological Peptone (Oxoid), 1.4 g granulated Yeast Extract (Merck), QSP liter • Inoculum: Spore suspension
Fungicides were solubilized in DMSO and the solution used to prepare the required range of concentrations. The final concentration of DMSO used in the assay was ≤1%.
A spore suspension was prepared and diluted to the desired spore density.
Fungicides were evaluated for their ability to inhibit spore germination and mycelium growth in liquid culture assay. The compounds were added in the desired concentration to the culture medium with spores. After 4 to 7 days incubation, fungi-toxicity of compounds was determined by spectrometric measurement of mycelium growth. Inhibition of fungal growth was determined by comparing the absorbance values in wells containing the fungicides with the absorbance in control wells without fungicides.

[2] = system: Leptosphaeria nodorum; assay: In vitro test for the calculation of the ED50-value with microorganisms, Example Q4: Leptosphaeria nodorum; format: cell-based; settings: liquid culture, spore suspension, 4 to 7 days incubation, spectrometric measurement of mycelium growth
[3] = system: Botrytis cinerea; assay: In vitro test for the calculation of the ED50-value with microorganisms, Example Q4: Botrytis cinerea; format: cell-based; settings: liquid culture, spore suspension, 4 to 7 days incubation, spectrometric measurement of mycelium growth
[4] = system: Septoria tritici; assay: In vivo preventive test on Septoria tritici (leaf spot on wheat), Examples E, Q3 and R5; settings: for pest or weed control at 500 ppm / pest or weed control at 100 ppm: Zymoseptoria tritici, 576 h
[5] = system: Botrytis cinerea; assay: In vivo preventive test on Botrytis cinerea (grey mould) on gherkin, Examples B, Q1 and R2
[6] = system: Pyrenophora teres; assay: In vivo preventive test on Pyrenophora teres (net blotch on barley), Examples D, Q2 and R4; settings: for pest or weed control at 500 ppm / pest or weed control at 100 ppm: Pyrenophora teres, 336 h
[7] = system: Septoria tritici; assay: In vitro test for the calculation of the ED50-value with microorganisms, Example Q4: Septoria tritici; format: cell-based; settings: liquid culture, spore suspension, 4 to 7 days incubation, spectrometric measurement of mycelium growth
[8] = system: Fusarium culmorum; assay: In vivo preventive Fusarium culmorum test (wheat), Example L; settings: 120 h, 500 ppm of active ingredient, preventive spray, evaluated 5 days after inoculation, read-out: efficacy
Protocol: After the spray coating has been dried, the plants are slightly injured by using a sandblast and afterwards they are sprayed with a conidia suspension of Fusarium culmorum.
The test is evaluated 5 days after the inoculation.

[9] = system: Pyricularia oryzae; assay: whole plant or invertebrate; format: in vivo; settings: 192 h, read-out: efficacy
[10] = system: Fusarium nivale (var. majus); assay: In vivo preventive Fusarium nivale (var. majus) test (wheat), Example O; settings: Microdochium nivale, 120 h, 500 ppm of active ingredient, preventive spray, evaluated 5 days after inoculation, read-out: efficacy
Description: After the spray coating has been dried, the plants are slightly injured by using a sandblast and afterwards they are sprayed with a conidia suspension of Fusarium nivale (var. majus).

[11] = system: Venturia inaequalis; assay: In vivo preventive Venturia test (apples), Example J; settings: 240 h, read-out: efficacy
Protocol: After the spray coating has dried on, the plants are inoculated with an aqueous conidia suspension of the causal agent of apple scab (Venturia inaequalis) and then remain for 1 day in an incubation cabinet at approximately 20° C. and a relative atmospheric humidity of 100%.
The plants are then placed in a greenhouse at approximately 21° C. and a relative atmospheric humidity of approximately 90%.
The test is evaluated 10 days after the inoculation.

[12] = system: Fusarium graminearum; assay: whole plant or invertebrate; format: in vivo; settings: in Hordeum vulgare, 120 h, read-out: efficacy
[13] = system: Uromyces appendiculatus; assay: In vivo preventive test on Uromyces appendiculatus (bean rust), Examples G and R7; settings: 264 h, preventive spray, evaluated 11 days after inoculation
[14] = system: Phakopsora pachyrhizi; assay: In vivo preventive Phakopsora test (soybeans), Example I; settings: 168 h, 100 ppm of active ingredient, preventive spray, evaluated 7 days after inoculation, read-out: efficacy
[15] = Measurement of LogP values by HPLC on reversed phase columns (EEC directive 79/831 Annex V.A8); format: physicochemical; settings: method [a]: LC-UV, acidic range, 0.1% formic acid in water and acetonitrile as eluent; Table 1
Protocol: Measurement of Log P values was performed as outlined above.

[16] = system: Sphaerotheca fuliginea; assay: In vivo preventive test on Sphaerotheca fuliginea (powdery mildew on cucurbits), Examples F and R6; settings: Podosphaera fuliginea, 360 h, preventive spray, evaluated 15 days after inoculation
[17] = system: Alternaria brassicae; assay: In vivo preventive test on Alternaria brassicae (leaf spot on radish), Examples A and R1; settings: Alternaria brassicae, 144 h, 500 ppm of active ingredient, preventive spray, evaluated 6 days after inoculation, read-out: efficacy
[18] = system: Puccinia recondita; assay: In vivo preventive test on Puccinia recondita (brown rust on wheat), Examples C and R3; settings: Puccinia recondita, 264 h, preventive spray, evaluated 11 days after inoculation
[19] = system: Blumeria graminis fsp. hordei; assay: In vivo preventive Blumeria test (barley), Example K; settings: 168 h, 500 ppm of active ingredient, preventive spray, evaluated 7 days after inoculation, read-out: efficacy
Description: After the spray coating has been dried, the plants are dusted with spores of Blumeria graminis fsp. hordei.

[20] = system: Alternaria solani; assay: In vivo preventive Alternaria test (tomatoes), Example H; settings: 72 h, 100 ppm of active ingredient, preventive spray, evaluated 3 days after inoculation, read-out: efficacy
[21] = system: Leptosphaeria nodorum; assay: In vivo preventive Leptosphaeria nodorum test (wheat), Example N; settings: Parastagonospora nodorum, 192 h, 500 ppm of active ingredient, preventive spray, evaluated 8 days after inoculation, read-out: efficacy
Description: After the spray coating has been dried, the plants are sprayed with a spore suspension of Leptosphaeria nodorum.

[22] = 500 ppm of active ingredient, bean, read-out: efficacy
[23] = 500 ppm of active ingredient, wheat, preventive spray, evaluated 24 days after inoculation, read-out: efficacy
[24] = 500 ppm of active ingredient, gherkin, read-out: efficacy
[25] = Botrytis cinerea, 500 ppm of active ingredient, preventive spray, evaluated 4 to 5 days after inoculation, read-out: efficacy
[26] = 500 ppm of active ingredient, preventive spray, evaluated 14 days after inoculation, read-out: efficacy
[27] = 500 ppm of active ingredient, wheat, read-out: efficacy

SMILES	Fusarium culmorum ED50 value in ppm [1] [ppm]	Leptosphaeria nodorum ED50 value in ppm [2] [ppm]	Botrytis cinerea ED50 value in ppm [3] [ppm]	Septoria tritici ED50 value in ppm [7] [ppm]	pest or weed control at 500 ppm [8] [%]	pest or weed control at 500 ppm [9] [%]	pest or weed control at 500 ppm [10] [%]	pest or weed control at 100 ppm [11] [%]	pest or weed control at 500 ppm [12] [%]	pest or weed control at 500 ppm [13, 22] [%]	pest or weed control at 100 ppm [14] [%]	chromatographic logP [15]	pest or weed control at 500 ppm [4, 23] [%]	pest or weed control at 500 ppm [16, 24] [%]	pest or weed control at 500 ppm [5, 25] [%]	pest or weed control at 500 ppm [6, 26] [%]	pest or weed control at 500 ppm [18, 27] [%]	pest or weed control at 500 ppm [19] [%]	pest or weed control at 100 ppm [20] [%]	pest or weed control at 500 ppm [21] [%]	also measured
OC(Cc1ccc(Cl)cc1F)(Cn1ccnc1)C1(Cl)CC1 (racemic) [reference compound]	0.04	0.04	0.53	0.02																	Efficacy in % ([4]; Example Q3, rate of application 100 ppm, wheat): 0%; Efficacy in % ([4]; Example Q3, rate of application 500 ppm, wheat): 100%; Efficacy in % ([5]; Example Q1, rate of application 100 ppm): 70%; Efficacy in % ([5]; Example Q1, rate of application 500 ppm): 100%; Efficacy in % ([6]; Example Q2, rate of application 100 ppm): 0%; Efficacy in % ([6]; Example Q2, rate of application 500 ppm): 0%
OC(Cc1ccccc1Cl)(Cn1cncc1F)C1(Cl)CC1 (stereo not drawn) [Example I-16]					90 to 100	90 to 100	90 to 100	90 to 100	80 to 89	90 to 100	90 to 100	1.94	90 to 100	90 to 100	90 to 100	90 to 100	80 to 89	90 to 100	90 to 100	90 to 100	pest or weed control at 500 ppm [17]: 90 to 100%
OC(Cc1cc(F)ncc1Cl)(Cn1cncc1Cl)C1(Cl)CC1 (stereo not drawn) [Example I-18]					80 to 89	90 to 100	90 to 100	90 to 100	90 to 100	90 to 100	90 to 100	2.01	90 to 100	90 to 100	90 to 100	90 to 100	90 to 100	90 to 100	90 to 100	90 to 100	pest or weed control at 500 ppm [17]: 70 to 79%
OC(Cc1ccc(Cl)cc1F)(Cn1cncc1Br)C1(Cl)CC1 (stereo not drawn) [Example I-30]	0.01	0.01	0.08	<0.006		90 to 100		90 to 100		90 to 100	90 to 100	2.55	90 to 100	90 to 100	90 to 100	90 to 100	90 to 100	90 to 100	90 to 100	90 to 100	pest or weed control at 100 ppm ([13]; Example R7, bean, 100 ppm, read-out: Efficacy in %): 88%; pest or weed control at 500 ppm ([13]; Example R7, bean, 500 ppm, read-out: Efficacy in %): 100%; pest or weed control at 100 ppm ([4]; Example Q3, rate of application 100 ppm, wheat, read-out: Efficacy in %): 94%; pest or weed control at 500 ppm ([4]; Example Q3, rate of application 500 ppm, wheat, read-out: Efficacy in %): 98%; pest or weed control at 100 ppm ([4]; Example R5, wheat, preventive spray, 100 ppm, evaluated 24 days after inoculation, read-out: Efficacy in %): 94%; pest or weed control at 500 ppm ([4]; Example R5, wheat, preventive spray, 500 ppm, evaluated 24 days after inoculation, read-out: Efficacy in %): 98%; pest or weed control at 100 ppm ([16]; Example R6, gherkin, 100 ppm, read-out: Efficacy in %): 100%; pest or weed control at 500 ppm ([16]; Example R6, gherkin, 500 ppm, read-out: Efficacy in %): 100%; pest or weed control at 100 ppm ([5]; Botrytis cinerea, Example Q1, rate of application 100 ppm, read-out: Efficacy in %): 100%; pest or weed control at 500 ppm ([5]; Botrytis cinerea, Example Q1, rate of application 500 ppm, read-out: Efficacy in %): 100%; Efficacy in % ([5]; Example R2, rate of application 100 ppm): 100%; Efficacy in % ([5]; Example R2, rate of application 500 ppm): 100%; pest or weed control at 100 ppm ([6]; Example Q2, rate of application 100 ppm, read-out: Efficacy in %): 91%; pest or weed control at 500 ppm ([6]; Example Q2, rate of application 500 ppm, read-out: Efficacy in %): 94%; pest or weed control at 100 ppm ([6]; Example R4, rate of application 100 ppm, read-out: Efficacy in %): 81%; pest or weed control at 500 ppm ([6]; Example R4, rate of application 500 ppm, read-out: Efficacy in %): 94%; pest or weed control at 100 ppm ([18]; Example R3, wheat, 100 ppm, read-out: Efficacy in %): 88%; pest or weed control at 500 ppm ([18]; Example R3, wheat, 500 ppm, read-out: Efficacy in %): 94%
N#Cc1cncn1CC(O)(Cc1ccccc1)C1(Cl)CC1 (stereo not drawn) [Example I-65]					90 to 100	90 to 100	90 to 100	80 to 89	90 to 100	90 to 100	90 to 100	2.64	80 to 89	90 to 100	90 to 100	90 to 100	90 to 100	90 to 100	90 to 100	80 to 89	
N#Cc1cncn1CC(O)(Cc1ccc(F)cc1)C1(Cl)CC1 (stereo not drawn) [Example I-157]					90 to 100	90 to 100	80 to 89	90 to 100	90 to 100	90 to 100	90 to 100	2.75	90 to 100	90 to 100	90 to 100	90 to 100	90 to 100	90 to 100	80 to 89	80 to 89	
